≈ marks a conversion by molar mass, not a printed value. Read-outs that look alike come from different tables or passages of the source.
Columns and labels:
[1] = system: Pseudomonas aeruginosa MB 5890; experiment: Minimum inhibitory concentrations of sentinel antibiotics (strain quality control); type: cell-based; settings: OprD+, efflux−, parental strain
[2] = system: MB 5919 Trans pFlp-Vim1 plasmid (MB 9861); type: cell-based, Pseudomonas aeruginosa; settings: OprD+, efflux+
[3] = system: Pseudomonas aeruginosa MB 5919; experiment: Minimum inhibitory concentrations of sentinel antibiotics (strain quality control); type: cell-based; settings: OprD+, efflux+, parental strain
[4] = system: MB 5890 Trans pFlp-Vim1 (MB9862); type: cell-based, Pseudomonas aeruginosa; settings: OprD+, efflux−
[5] = system: MB 5919 Trans pFlp-Vim2 plasmid; type: cell-based, Pseudomonas aeruginosa; settings: OprD+, efflux+
[6] = system: MB 5890 Trans IMP1 plasmid (MB 9799); type: cell-based, Pseudomonas aeruginosa; settings: OprD+, efflux−
[7] = system: MB 5919 Trans IMP1 plasmid (MB 9798); type: cell-based, Pseudomonas aeruginosa; settings: OprD+, efflux+
[8] = system: MB 5890 Trans pFlp-Vim2 plasmid; type: cell-based, Pseudomonas aeruginosa; settings: OprD+, efflux−
[9] = system: Pseudomonas aeruginosa PAO1 MB9799 (efflux-, IMP-1); type: cell-based; settings: C, D serine β-lactamase inhibitor closely related to relebactam; for P. aeruginosa expressing IMP-1, efflux − (MB9799) MITC95: restores susceptibility to imipenem at 2 μg/mL in the presence of a class A, efflux − strain MB9799
Description: The strain background was Pseudomonas aeruginosa PAO1.
The strain set was then used as a pair to determine the effect of metallo-β-lactamase inhibitors of Formula I on the MIC of imipenem and/or ceftazidime. A fixed concentration of antibiotic was included in standard microbroth MIC tests, usually at the CLSI (Clinical and Laboratory Standards Institute) breakpoint concentration. A fixed amount of a class A/C beta-lactamase inhibitor was also included to inhibit the resident Pseudomonas AmpC enzyme. A serial titration of the metallo-β-lactamase inhibitor was included and the concentration of metallo-β-lactamase inhibitor which restores susceptibility of the strain to the included antibiotic was recorded. That concentration of metallo-β-lactamase inhibitor was then compared between the two strains to determine the fold difference between the efflux + (MB9798) and efflux − (MB9799) strains. This was taken as an indication of the extent to which the MBLi is subject to efflux.

IMP-1 = IMP-1 (Serratia marcescens, UniProt P52699); type: biochemical; settings: CCF2-FA substrate, 2 hours at 25° C.
IMP-1, sequence (P52699 whole entry, looked up, species assumed): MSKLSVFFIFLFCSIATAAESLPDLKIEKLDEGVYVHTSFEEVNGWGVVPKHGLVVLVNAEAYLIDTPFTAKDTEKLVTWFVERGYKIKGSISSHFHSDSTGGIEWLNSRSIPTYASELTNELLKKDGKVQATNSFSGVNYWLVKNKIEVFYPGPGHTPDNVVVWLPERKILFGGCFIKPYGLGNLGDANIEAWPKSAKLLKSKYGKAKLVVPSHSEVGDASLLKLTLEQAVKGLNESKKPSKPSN
Protocol: (§1) Enzyme Activity: Determination of IC50
(§2) The Class B enzyme activities were measured in the presence of the test inhibitor in a fluorescence assay against a commercially available substrate consisting of a cephalosporin core linking 7-hydroxycoumarin to fluorescein (CCF2-FA). […] In a 384-well microplate, the test inhibitor was incubated with the metallo-β-lactamase enzyme and the substrate for 2 hours at 25° C. […] The IC50 value was determined from semi-logarithmic plots of enzyme inhibition versus inhibitor concentration, with a curve generated using a 4-parameter fit.

NDM-1 = NDM-1 (Klebsiella pneumoniae, UniProt C7C422); type: biochemical; settings: CCF2-FA substrate, 2 hours at 25° C.
NDM-1, sequence (C7C422 whole entry, looked up, species assumed): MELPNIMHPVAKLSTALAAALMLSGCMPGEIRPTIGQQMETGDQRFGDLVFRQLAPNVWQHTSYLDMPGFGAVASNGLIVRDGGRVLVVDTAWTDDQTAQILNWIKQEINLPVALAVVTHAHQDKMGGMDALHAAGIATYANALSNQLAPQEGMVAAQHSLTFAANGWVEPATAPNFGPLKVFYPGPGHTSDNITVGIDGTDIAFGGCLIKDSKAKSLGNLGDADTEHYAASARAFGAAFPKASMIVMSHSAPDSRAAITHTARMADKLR
Protocol: as §1, §2

[10] = system: Pseudomonas aeruginosa PAO1 MB9798 (efflux+, IMP-1); settings: for Efflux ratio: ratio MITC95 PA 9798/MITC95 PA 9799; for P. aeruginosa expressing IMP-1, efflux + (MB9798) MITC95: restores susceptibility to imipenem at 2 μg/mL in the presence of a class A
Method in brief: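 Isogenic PAO1 pair (efflux+ MB9798, efflux− MB9799, both IMP-1) tested by microbroth MIC with fixed imipenem and/or ceftazidime, usually at CLSI breakpoint, plus fixed class A/C inhibitor against AmpC. MBL inhibitor titrated; concentration restoring susceptibility recorded and fold difference between strains taken as efflux extent.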

[11] = system: Klebsiella pneumoniae expressing VIM-1 (IHMA599644); type: cell-based; settings: with imipenem 1 μg/ml; 95% inhibition of bacterial growth
Method in brief: (§3)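 Clinical strains were grown overnight at 35 °C on blood agar, adjusted to set OD600 in saline and diluted 1:100 into 1.1× CAMHB. Inhibitor was tested with and without imipenem at 1 μg/ml. After 22–24 h at 35 °C, absorbance was read to give synergistic concentration.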

[12] = system: Escherichia coli expressing NDM-1 (CLB30005, CLB30016); type: cell-based; settings: with imipenem 1 μg/ml; 95% inhibition of bacterial growth
Method in brief: as §3

[13] = system: Serratia marcescens expressing IMP-1 (CL5741); type: cell-based; settings: with imipenem 1 μg/ml; 95% inhibition of bacterial growth
Method in brief: as §3

VIM-1 = VIM-1 (Pseudomonas aeruginosa (strain ATCC 15692 / DSM 22644 / CIP 104116 / JCM 14847 / LMG 12228 / 1C / PRS 101 / PAO1), UniProt A0A0F7KYQ8); type: biochemical; settings: CCF2-FA substrate, 2 hours at 25° C.
Protocol: as §1, §2

[14] = C, D serine β-lactamase inhibitor closely related to relebactam, efflux + strain MB9798

Molecule | Klebsiella pneumoniae (VIM-1) MITC95 [11] | Escherichia coli (NDM-1) MITC95 [12] | Serratia marcescens (IMP-1) MITC95 [13] | Efflux ratio ([10]; imipenem at 2 μg/mL) | also measured
C[C@@H](O)[C@H]1C(=O)N2C(C(=O)O)=C(SCCN=CN)C[C@H]12 [Imipenem, imipenem] | – | – | – | – | MIC [1]: 2 µg/mL (≈ 6.68 µM); MIC [2]: >64 µg/mL; MIC [3]: 4 µg/mL (≈ 13.4 µM); MIC [4]: 64 µg/mL (≈ 214 µM); MIC [5]: >64 µg/mL; MIC [6]: 32 µg/mL (≈ 107 µM); MIC [7]: 64 µg/mL (≈ 214 µM); MIC [8]: 32 µg/mL (≈ 107 µM)
CCN1CCN(C(=O)N[C@@H](C(=O)N[C@@H]2C(=O)N3[C@@H]2SC(C)(C)[C@@H]3C(=O)O)c2ccccc2)C(=O)C1=O [Pipercillin, piperacillin] | – | – | – | – | MIC [1]: 1 µg/mL (≈ 1.93 µM); MIC [3]: 2 µg/mL (≈ 3.86 µM); MIC [6]: 4 µg/mL (≈ 7.73 µM); MIC [7]: 4 µg/mL (≈ 7.73 µM)
NC[C@H](O)CNS(=O)(=O)c1ccc(-c2ccnc(N)c2)c(-c2nn[nH]n2)c1S(N)(=O)=O [Example 417, (S)-N^1-(3-amino-2-hydroxypropyl)-4-(2-aminopyridin-4-yl)-3-(2H-tetrazol-5-yl)benzene-1,2-disulfonamide] | – | – | – | – | Concentration of metallo-β-lactamase inhibitor which restores susceptibility of efflux − (MB9799) strain to imipenem ([9]; imipenem at 2 μg/mL, in the presence of a class A): 0.7813; IC50 (IMP-1): 1.28 nM; IC50 (NDM-1): 0.385 nM; Concentration of metallo-β-lactamase inhibitor which restores susceptibility of efflux + (MB9798) strain to imipenem ([10]; imipenem at 2 μg/mL, in the presence of a class A, C, D serine β-lactamase inhibitor closely related to relebactam, efflux + strain MB9798): 1.563
CC(C)(O/N=C(\C(=O)N[C@@H]1C(=O)N2C(C(=O)[O-])=C(C[n+]3ccccc3)CS[C@H]12)c1csc(N)n1)C(=O)O [CAZ, ceftazidime] | – | – | – | – | MIC [1]: 0.5 µg/mL (≈ 0.915 µM); MIC [3]: 1 µg/mL (≈ 1.83 µM); MIC [8]: 64 µg/mL (≈ 117 µM)
CN([C@H]1CCNC1)S(=O)(=O)c1ccc(-c2cccc3[nH]c(N)nc23)c(-c2nn[nH]n2)c1S(N)(=O)=O [Example 244, (S)-4-(2-amino-1H-benzo[d]imidazol-7-yl)-N1-methyl-N1-(pyrrolidin-3-yl)-3-(1H-tetrazol-5-yl)benzene-1,2-disulfonamide] | 1.563 µM | 0.7813 µM | 1.563 µM | 2.00 | –
NCc1ncc(-c2cccc(-c3ccc(S(=O)(=O)N[C@@H]4CCNC4)c(S(N)(=O)=O)c3-c3nn[nH]n3)c2)[nH]1 [Example 278, (R)-3′-(2-(aminomethyl)-1H-imidazol-5-yl)-N4-(pyrrolidin-3-yl)-2-(2H-tetrazol-5-yl)-[1,1′-biphenyl]-3,4-disulfonamide] | 0.7813 µM | 0.7813 µM | 0.7813 µM | 1.00 | –
NCCNS(=O)(=O)c1ccc(-c2cccc3[nH]c([C@H](N)CN)nc23)c(-c2nn[nH]n2)c1S(N)(=O)=O [Example 335, (R)—N1-(2-aminoethyl)-4-(2-(1,2-diaminoethyl)-1H-benzo[d]imidazole-4-yl)-3-(2H-tetrazol-5-yl)benzene-1,2-disulfonamide] | 3.125 µM | 1.563 µM | 3.125 µM | 2.00 | –
NCCNS(=O)(=O)c1ccc(-c2cccc(C(=O)NC[C@H](O)CN)c2)c(-c2nn[nH]n2)c1S(N)(=O)=O [Example 346, (R)—N-(3-amino-2-hydroxypropyl)-4′-(N-(2-aminoethyl)sulfamoyl)-3′-sulfamoyl-2′-(2H-tetrazol-5-yl)-[1,1′-biphenyl]-3-carboxamide] | 1.563 µM | 1.563 µM | 1.563 µM | 2.00 | –
NCCNS(=O)(=O)c1ccc(-c2cccc(NC[C@@H](O)CN)c2)c(-c2nn[nH]n2)c1S(N)(=O)=O [Example 352, (S)-3′-((3-amino-2-hydroxypropyl)amino)-N4-(2-aminoethyl)-2-(2H-tetrazol-5-yl)-[1,1′-biphenyl]-3,4-disulfonamide] | 1.563 µM | 0.7813 µM | 1.563 µM | 2.00 | –
(R)-4-(1-(2-aminoethyl)-1H-benzo[d][1,2,3]triazol-4-yl)-N1-(pyrrolidin-3-yl)-3-(2H-tetrazol-5-yl)benzene-1,2-disulfonamide yl)benzene-1,2-disulfonamide [Example 289] | 1.563 µM | 0.7813 µM | 1.563 µM | 2.00 | P. aeruginosa expressing IMP-1, efflux − (MB9799) MITC95 [9]: 0.7813 µM; IC50 (VIM-1): 0.104 nM; IC50 (IMP-1): 1.22 nM; IC50 (NDM-1): 0.249 nM; P. aeruginosa expressing IMP-1, efflux + (MB9798) MITC95 [10, 14]: 1.563 µM
Nc1nc2c(-c3ccc(S(=O)(=O)N4CCN(CCO)CC4)c(S(N)(=O)=O)c3-c3nnn[nH]3)cccc2s1.O=C(O)C(F)(F)F [Example 92, 4-((4-(2-aminobenzo[d]thiazol-4-yl)-2-sulfamoyl-3-(1H-tetrazol-5-yl)phenyl)sulfonyl)-1-(2-hydroxyethyl) piperazin-1-ium 2,2,2-trifluoroacetate] | – | – | – | 4.00 | P. aeruginosa expressing IMP-1, efflux − (MB9799) MITC95 [9]: 6.25 µM; IC50 (VIM-1; fluorescence assay): 1.41 nM; IC50 (IMP-1; fluorescence assay): 1.17 nM; IC50 (NDM-1; fluorescence assay): 0.609 nM; Escherichia coli expressing NDM-1 (CLB30016) MITC95 [12]: 12.5 µM; P. aeruginosa expressing IMP-1, efflux + (MB9798) MITC95 [10, 14]: 25 µM
C[N+]1(CCN)CC[C@@H](NS(=O)(=O)c2ccc(-c3cccc4[nH]c(N)nc34)c(-c3nn[nH]n3)c2S(N)(=O)=O)C1 (stereo partly drawn) [Example 248, (3R)-3-{[4-(2-amino-1H-1,3-benzodiazol-4-yl)-2-sulfamoyl-3-(2H-1,2,3,4-tetrazol-5-yl)benzene]sulfonamido}-1-(2-aminoethyl)-1-methylpyrrolidin-1-ium; methaneperoxoate] | 0.7813 µM | – | – | – | P. aeruginosa expressing IMP-1, efflux − (MB9799) MITC95 [9]: 0.7813 µM; P. aeruginosa expressing IMP-1, efflux + (MB9798) MITC95 [10, 14]: 0.7813 µM
NC[C@H](CO)NS(=O)(=O)c1ccc(-c2ccnc(N)c2)c(-c2nn[nH]n2)c1S(N)(=O)=O [Example 362, (R)—N1-(1-amino-3-hydroxypropan-2-yl)-4-(2-aminopyridin-4-yl)-3-(2H-tetrazol-5-yl)benzene-1,2-disulfonamide] | 3.125 µM | 1.563 µM | 1.563 µM | 2.00 | –
NCCNS(=O)(=O)c1ccc(-c2cccc(NC[C@@H](N)CO)c2)c(-c2nn[nH]n2)c1S(N)(=O)=O [Example 349, (R)-3′-((2-amino-3-hydroxypropyl)amino)-N4-(2-aminoethyl)-2-(2H-tetrazol-5-yl)-[1,1′-biphenyl]-3,4-disulfonamide] | 1.563 µM | 1.563 µM | 1.563 µM | 2.00 | –

— patent US10544130B2, “Metallo-beta-lactamase inhibitors” (priority 2015, dated 2020)
